Experimental findings from patent US20040034105A1, “Use of 1-phenyl-3-dimethylaminopropane compounds for treatment of urinary incontinence” (Gruenenthal GmbH, priority 2000, published 2004) are described below.

Marks after values point to notes of the source that are not given here.

The subject of test [1] is female Sprague-Dawley rats. Put plainly: Cystometry tests on conscious fresh rats. It counts as in vivo, rat. The conditions noted are these: for BC Bladder Capacity (change compared to the baseline value) / ICI Inter-Contraction Interval (change compared to the baseline value) / TP Threshold Pressure (change compared to the baseline value): effect maximum, mean of 3 micturition cycles; for Activity of the enantiomers of racemic compound 1 in cystometry: iv. The method, then:
Three days after implantation of bladder and venous catheters the animals were investigated in the conscious state while freely moving. The bladder catheter was connected to a pressure gauge and an injection pump. The animals were placed in metabolic cages that enable the volume of urine to be measured. Physiological saline solution was infused (10 ml/hour) into the emptied bladder and the bladder pressure and volume of urine were continuously recorded. After a stabilisation phase a 20-minute phase was recorded that was characterised by normal, reproducible micturition cycles. The following parameters among others were measured:
threshold pressure TP, bladder pressure immediately before micturition,
bladder capacity BC, residual volume after prior micturition plus volume of infused solution during the filling phase,
intercontraction interval ICI, i.e. the time interval between consecutive micturition.
An increase in the threshold pressure (TP) indicates an important therapeutic effect in one of the medical conditions covered by the invention. Also, the intercontraction interval (ICI) is an important parameter for measuring the physiological effectiveness of a substance in the treatment of urinary incontinence, as is the bladder capacity (BC). In this connection, on account of the widely differing causes of the symptoms of these disease patterns it is not necessary to influence positively all three parameters in order for a medicament to be effective.
After recording three reproducible micturition cycles to provide a baseline value, the test substances 1 (1.0 mg/kg), 2 (0.1; 0.3 and 0.5 mg/kg), 21 (0.5 mg/kg), 7 (0.3 mg/kg), 8 (1.0 mg/kg), 9 (0.5 mg/kg) and 11 (0.5 mg/kg) in a vehicle comprising 0.9% NaCl were applied intravenously and the effect on the cystometric parameters was recorded at 90 to 120 minutes. In the effect maximum the mean value of 3 micturition cycles was determined and recorded as a percentage change compared to the baseline value (Table 1).

The next test relates to female rats. The experiment in a line: Cystometry investigations in narcotised fresh rats (suppression of spontaneous bladder contractions). It counts as in vivo, rat. As to conditions: intravenous, cumulative, mean value from at least two experiments. As to the method: The cystometric investigation was carried out on fresh female rats according to the method of Kimura et al. (Kimura et al., 1996, Int. J. Urol. 3: 218-227). The abdomen of narcotised ventilated rats is opened and the ureter is ligated. The urine is drawn off from the kidneys. A catheter is inserted into the bladder and secured in place. […] The test substance is applied intravenously in a cumulative manner after stable starting values were reached. An effect on the bladder function is manifested by the suppression of the spontaneous contractions. The disappearance of the contractions over a period of 10 minutes serves as a parameter for their suppression.
With all the substances listed there was a measurable suppression of the spontaneous contractions in rats, Table 2 showing the mean value of the lowest dose from at least two experiments, in which contractions disappeared for the first time over a period of 10 minutes.

Regarding `CC[C@](O)(c1cccc(OC)c1)[C@H](C)CN(C)C.Cl` (racemic) [Compound 1, (2RS,3RS)-1-dimethylamino-3-(3-methoxyphenyl)-2-methylpentan-3-ol, hydrochloride], in test [1] (1.0 mg/kg iv), the “BC Bladder Capacity (change compared to the baseline value)” value is reported as “+31%***”, the “ICI Inter-Contraction Interval (change compared to the baseline value)” value is given as “+42%” and the “TP Threshold Pressure (change compared to the baseline value)” value was “+94%**”.
Take `CC[C@](O)(c1ccc(Cl)c(Cl)c1)[C@H](C)CN(C)C.Cl` (racemic) [Compound 3, (2RS,3RS)-3-(3,4-dichlorophenyl)-1-dimethylamino-2-methylpentan-3-ol, hydrochloride]: the “Lowest Dose at which contractions disappeared for the first time over a period of 10 minutes” value (from here on “Lowest Dose … over a period of 10 minutes”) in the test with female rats turned out to be 23.3 mg/kg.
Same read-out and setting: the value for `CC[C@](O)(c1cccc(C(F)F)c1)[C@H](C)CN(C)C.Cl` (racemic) [Compound 4, (2RS,3RS)-3-(3-difluoromethylphenyl)-1-dimethylamino-2-methylpentan-3-ol, hydrochloride] was 1.7 mg/kg; that for `CC[C@](O)(c1cccc(SC)c1)[C@H](C)CN(C)C.Cl` (racemic) [Compound 5, (2RS,3RS)-1-dimethylamino-2-methyl-3-(3-methylsulfanylphenyl)-pentan-3-ol, hydrochloride] was 2.3 mg/kg.
On the same count and under the same terms, next, `COc1cccc(C(O)(CCN(C)C)C(C)(C)C)c1.Cl` (racemic) [Compound 6, (3RS)-1-dimethylamino-3-(3-methoxyphenyl)-4,4-dimethylpentan-3-ol, hydrochloride]: 16.7 mg/kg.
For the compound `CCC(O)(c1cccc(O)c1)C(C)CN(C)C.Cl` (racemic) [Compound 7, (2RS,3RS)-3-(3-dimethylamino-1-ethyl-1-hydroxy-2-methylpropyl)-phenol, hydrochloride], in test [1] (0.3 mg/kg iv), the “BC Bladder Capacity (change compared to the baseline value)” value is reported as “+32%*”, the “ICI Inter-Contraction Interval (change compared to the baseline value)” value is reported as “+28%*” and the “TP Threshold Pressure (change compared to the baseline value)” value is “+95%**”.
On to `C[C@H](CN(C)C)[C@@](C)(O)c1cccc(O)c1.Cl` (racemic) [Compound 8, (1RS,2RS)-3-(3-dimethylamino-1-hydroxy-1,2-dimethylpropyl)-phenol, hydrochloride], for which, in test [1] (1.0 mg/kg iv), the “BC Bladder Capacity (change compared to the baseline value)” value is given as “+7%”, the “ICI Inter-Contraction Interval (change compared to the baseline value)” value is reported as “+14.4%” and the “TP Threshold Pressure (change compared to the baseline value)” value is “+60%**”.
Regarding `CCC(O)(c1cccc(OC)c1)C1(CN(C)C)CCCCC1.Cl` (racemic) [Compound 13, (1RS)-1-(1-dimethylaminomethylcyclohexyl)-1-(3-methoxyphenyl)-propan-1-ol, hydrochloride], in the test with female rats, the “Lowest Dose … over a period of 10 minutes” value worked out at 20.0 mg/kg.
`CC[C@](O)(c1ccc(Cl)cc1)[C@H](C)CN(C)C.Cl` (racemic) [Compound 14, (2RS,3RS)-3-(4-chlorophenyl)-1-dimethylamino-2-methylpentan-3-ol, hydrochloride]: the “Lowest Dose … over a period of 10 minutes” value with female rats came to 20.0 mg/kg.
In the case of `CC[C@](O)(c1cccc(OC)c1)[C@H](C)CN(C)C.Cl` [Compound 2, (+)-(2R,3R)-1-dimethylamino-3-(3-methoxyphenyl)-2-methylpentan-3-ol, hydrochloride], in test [1] (0.1 mg/kg iv), the “BC Bladder Capacity (change compared to the baseline value)” value is on record as “+7.8%”, the “ICI Inter-Contraction Interval (change compared to the baseline value)” value was “+15.6%” and the “TP Threshold Pressure (change compared to the baseline value)” value is “+28.5%**”. Moreover, in test [1] (0.3 mg/kg iv), the “BC Bladder Capacity (change compared to the baseline value)” value is “+33%*”, the “ICI Inter-Contraction Interval (change compared to the baseline value)” value is on record as “+28%*” and the “TP Threshold Pressure (change compared to the baseline value)” value is on record as “+122%**”. Further, in test [1] (0.5 mg/kg iv), the “BC Bladder Capacity (change compared to the baseline value)” value is on record as “+20.6%*”, the “ICI Inter-Contraction Interval (change compared to the baseline value)” value is given as “+28.6%**” and the “TP Threshold Pressure (change compared to the baseline value)” value was “+77.5%**”. The “Activity of the enantiomers of racemic compound 1 in cystometry” value in test [1] was “effectively active”.
`C[C@H](CN(C)C)[C@@](C)(O)c1cccc(O)c1.Cl` [Compound 9, (+)-(1R,2R)-3-(3-dimethylamino-1-hydroxy-1,2-dimethylpropyl)-phenol, hydrochloride]: in test [1] (0.5 mg/kg iv), the “BC Bladder Capacity (change compared to the baseline value)” value was “+50%**”, the “ICI Inter-Contraction Interval (change compared to the baseline value)” value is “+21%*” and the “TP Threshold Pressure (change compared to the baseline value)” value is on record as “+56%**”.
As to `C[C@H](CN(C)C)[C@@](C)(O)c1cccc(O)c1.Cl` [Compound 10, (+)-(1R,2R)-3-(3-dimethylamino-1-hydroxy-1,2-dimethylpropyl)-phenol, hydrochloride], in the test on female rats, the “Lowest Dose … over a period of 10 minutes” value is listed as 0.2 mg/kg.
`CC[C@@H](c1cccc(O)c1)[C@@H](C)CN(C)C.Cl` [Compound 11, (−)-(1R,2R)-3-(3-dimethylamino-1-ethyl-2-methylpropyl)-phenol, hydrochloride]: in test [1] (0.5 mg/kg iv), the “BC Bladder Capacity (change compared to the baseline value)” value is listed as “+11%”, the “ICI Inter-Contraction Interval (change compared to the baseline value)” value was “+22.6%” and the “TP Threshold Pressure (change compared to the baseline value)” value is recorded as “+9%”.
As for `CC[C@](OC(C)=O)(c1cccc(OC)c1)[C@H](C)CN(C)C.Cl` [Compound 12, (+)-(1R,2R)-acetic acid-3-dimethylamino-1-ethyl-1-(3-methoxyphenyl)-2-methylpropyl ester, hydrochloride], the “Lowest Dose … over a period of 10 minutes” value with female rats is 30.0 mg/kg.
With `CC[C@@](O)(c1cccc(OC)c1)[C@@H](C)CN(C)C.Cl` [Compound 21, (−)-(2S,3S)-1-dimethylamino-3-(3-methoxyphenyl)-2-methylpentan-3-ol, hydrochloride], in test [1] (0.5 mg/kg iv), the “BC Bladder Capacity (change compared to the baseline value)” value is reported as “+3%”, the “ICI Inter-Contraction Interval (change compared to the baseline value)” value is given as “+10%” and the “TP Threshold Pressure (change compared to the baseline value)” value was −1.1%. Besides, the “Activity of the enantiomers of racemic compound 1 in cystometry” value in test [1] is listed as “plays only a contributory role”.
